According to paper PMC5356695, “A phase 1 study of oral ridaforolimus in pediatric patients with advanced solid tumors” (Oncotarget, 2016):
Read-outs that look alike come from different tables or passages of the source.

System: pediatric patients with advanced solid tumors
Settings: for Leukopenia (treatment-related AE): laboratory values only
Description: This phase 1, multicenter, open-label study was conducted at a total of 8 study sites (3 study sites in the United States and 5 Innovative Therapies for Children with Cancer [ITCC] Consortium centers [2 in the United Kingdom and 3 in France]) between January 31, 2012, and the data cutoff, January 14, 2014 (ClinicalTrials.gov identifier NCT01431534; European Clinical Trials Database [EudraCT] number 2011-000729-55). An enteric-coated tablet formulation of ridaforolimus was orally administered for 5 consecutive days and not administered for 2 consecutive days per week in 28-day cycles until progression, unacceptable toxicity, or consent withdrawal. […] Dose escalation was conducted by using a modified toxicity probability intervals method that targeted a 30% DLT rate and started at 22 mg/m^2 (the equivalent of the adult RP2D [27], a 40-mg dose in adults with a BSA of 1.8 m^2). […] Dosing was adjusted based on BSA and rounded to the nearest 10-mg tablet. Patients were to be treated at sequentially rising dose levels until a preliminary MTD was identified.
Toxicity was graded according to the National Cancer Institute Common Terminology Criteria for Adverse Events, version 4.0 [42]. Safety data were reported for all patients who received at least 1 dose of the study drug. […] Once the RP2D of ridaforolimus was defined, an expansion cohort to be treated at the RP2D was planned to obtain additional safety, tolerability, and pharmacokinetic data.

SMILES: CO[C@H]1C[C@@H]2CC[C@@H](C)[C@@](O)(O2)C(=O)C(=O)N2CCCC[C@H]2C(=O)O[C@H]([C@H](C)C[C@@H]2CC[C@@H](OP(C)(C)=O)[C@H](OC)C2)CC(=O)[C@H](C)/C=C(\C)[C@@H](O)[C@@H](OC)C(=O)[C@H](C)C[C@H](C)/C=C/C=C/C=C/1C [ridaforolimus]
- Increased alkaline phosphatase (treatment-related AE) (33 mg/m^2 n = 13, grades 3–4): 0 n (%)
- Increased bilirubin (treatment-related AE) (33 mg/m^2 n = 13, grades 3–4): 0 n (%)
- Increased γ-glutamyltransferase (treatment-related AE) (33 mg/m^2 n = 13, grades 3–4): 1 (8) n (%)
- Lymphopenia (treatment-related AE) (33 mg/m^2 n = 13, grades 3–4): 1 (8) n (%)
- Nausea (treatment-related AE) (33 mg/m^2 n = 13, grades 3–4): 0 n (%)
- Neutropenia (treatment-related AE) (33 mg/m^2 n = 13, grades 3–4): 1 (8) n (%)
- Oral herpes (treatment-related AE) (33 mg/m^2 n = 13, grades 3–4): 0 n (%)
- Patients with ≥1 treatment-related adverse event (33 mg/m^2 n = 13, grades 3–4): 5 (38) n (%)
- Photophobia (treatment-related AE) (33 mg/m^2 n = 13, grades 3–4): 0 n (%)
- Rash (treatment-related AE) (33 mg/m^2 n = 13, grades 3–4): 0 n (%)
- Stomatitis (treatment-related AE) (33 mg/m^2 n = 13, grades 3–4): 0 n (%)
- Thrombocytopenia (treatment-related AE) (33 mg/m^2 n = 13, grades 3–4): 1 (8) n (%)
- Vomiting (treatment-related AE) (33 mg/m^2 n = 13, grades 3–4): 0 n (%)
- Leukopenia (treatment-related AE) (33 mg/m^2 n = 13, grades 3–4): 0 n (%)
- Anemia (treatment-related AE) (Total N = 20, any grade): 8 (40) n (%)
- Decreased appetite (treatment-related AE) (Total N = 20, any grade): 2 (10) n (%)
- Decreased weight (treatment-related AE) (Total N = 20, any grade): 2 (10) n (%)
- Diarrhea (treatment-related AE) (Total N = 20, any grade): 2 (10) n (%)
- Dry mouth (treatment-related AE) (Total N = 20, any grade): 2 (10) n (%)
- Dysgeusia (treatment-related AE) (Total N = 20, any grade): 3 (15) n (%)
- Epistaxis (treatment-related AE) (Total N = 20, any grade): 2 (10) n (%)
- Fatigue (treatment-related AE) (Total N = 20, any grade): 9 (45) n (%)
- Headache (treatment-related AE) (Total N = 20, any grade): 3 (15) n (%)
- Hypercholesterolemia (treatment-related AE) (Total N = 20, any grade): 9 (45) n (%)
- Hyperglycemia (treatment-related AE) (Total N = 20, any grade): 2 (10) n (%)
- Hypertriglyceridemia (treatment-related AE) (Total N = 20, any grade): 10 (50) n (%)
- Hypocalcemia (treatment-related AE) (Total N = 20, any grade): 2 (10) n (%)
- Hypokalemia (treatment-related AE) (Total N = 20, any grade): 2 (10) n (%)
- Hypophosphatemia (treatment-related AE) (Total N = 20, any grade): 5 (25) n (%)
- Increased ALT (treatment-related AE) (Total N = 20, any grade): 10 (50) n (%)
- Increased AST (treatment-related AE) (Total N = 20, any grade): 8 (40) n (%)
- Increased alkaline phosphatase (treatment-related AE) (Total N = 20, any grade): 2 (10) n (%)
- Increased bilirubin (treatment-related AE) (Total N = 20, any grade): 2 (10) n (%)
- Increased γ-glutamyltransferase (treatment-related AE) (Total N = 20, any grade): 5 (25) n (%)
- Lymphopenia (treatment-related AE) (Total N = 20, any grade): 2 (10) n (%)
- Nausea (treatment-related AE) (Total N = 20, any grade): 6 (30) n (%)
- Neutropenia (treatment-related AE) (Total N = 20, any grade): 6 (30) n (%)
- Oral herpes (treatment-related AE) (Total N = 20, any grade): 2 (10) n (%)
- Patients with ≥1 treatment-related adverse event (Total N = 20, any grade): 19 (95) n (%)
- Photophobia (treatment-related AE) (Total N = 20, any grade): 3 (15) n (%)
- Rash (treatment-related AE) (Total N = 20, any grade): 2 (10) n (%)
- Stomatitis (treatment-related AE) (Total N = 20, any grade): 15 (75) n (%)
- Thrombocytopenia (treatment-related AE) (Total N = 20, any grade): 13 (65) n (%)
- Vomiting (treatment-related AE) (Total N = 20, any grade): 3 (15) n (%)
- Leukopenia (treatment-related AE) (Total N = 20, any grade): 7 (35) n (%)
- Anemia (treatment-related AE) (Total N = 20, grades 3–4): 0 n (%)
- Decreased appetite (treatment-related AE) (Total N = 20, grades 3–4): 0 n (%)
- Decreased weight (treatment-related AE) (Total N = 20, grades 3–4): 0 n (%)
- Diarrhea (treatment-related AE) (Total N = 20, grades 3–4): 0 n (%)
- Dry mouth (treatment-related AE) (Total N = 20, grades 3–4): 0 n (%)
- Dysgeusia (treatment-related AE) (Total N = 20, grades 3–4): 0 n (%)
- Epistaxis (treatment-related AE) (Total N = 20, grades 3–4): 0 n (%)
- Fatigue (treatment-related AE) (Total N = 20, grades 3–4): 0 n (%)
- Headache (treatment-related AE) (Total N = 20, grades 3–4): 0 n (%)
- Hypercholesterolemia (treatment-related AE) (Total N = 20, grades 3–4): 1 (5) n (%)
- Hyperglycemia (treatment-related AE) (Total N = 20, grades 3–4): 0 n (%)
- Hypertriglyceridemia (treatment-related AE) (Total N = 20, grades 3–4): 1 (5) n (%)
- Hypocalcemia (treatment-related AE) (Total N = 20, grades 3–4): 0 n (%)
- Hypokalemia (treatment-related AE) (Total N = 20, grades 3–4): 0 n (%)
- Hypophosphatemia (treatment-related AE) (Total N = 20, grades 3–4): 1 (5) n (%)
- Increased ALT (treatment-related AE) (Total N = 20, grades 3–4): 5 (25) n (%)
- Increased AST (treatment-related AE) (Total N = 20, grades 3–4): 1 (5) n (%)
- Increased alkaline phosphatase (treatment-related AE) (Total N = 20, grades 3–4): 0 n (%)
- Increased bilirubin (treatment-related AE) (Total N = 20, grades 3–4): 0 n (%)
- Increased γ-glutamyltransferase (treatment-related AE) (Total N = 20, grades 3–4): 1 (5) n (%)
- Lymphopenia (treatment-related AE) (Total N = 20, grades 3–4): 1 (5) n (%)
- Nausea (treatment-related AE) (Total N = 20, grades 3–4): 0 n (%)
- Neutropenia (treatment-related AE) (Total N = 20, grades 3–4): 1 (5) n (%)
- Oral herpes (treatment-related AE) (Total N = 20, grades 3–4): 1 (5) n (%)
- Patients with ≥1 treatment-related adverse event (Total N = 20, grades 3–4): 9 (45) n (%)
- Photophobia (treatment-related AE) (Total N = 20, grades 3–4): 0 n (%)
- Rash (treatment-related AE) (Total N = 20, grades 3–4): 0 n (%)
- Stomatitis (treatment-related AE) (Total N = 20, grades 3–4): 0 n (%)
- Thrombocytopenia (treatment-related AE) (Total N = 20, grades 3–4): 2 (10) n (%)
- Vomiting (treatment-related AE) (Total N = 20, grades 3–4): 0 n (%)
- Leukopenia (treatment-related AE) (Total N = 20, grades 3–4): 0 n (%)
- Anemia, treatment-related (all patients, N = 20): 40%
- Fatigue, treatment-related (all patients, N = 20): 45%
- Hypercholesterolemia, treatment-related (all patients, N = 20): 45%
- Hypertriglyceridemia, treatment-related (all patients, N = 20): 50%
- Increased ALT, treatment-related (all patients, N = 20): 50%
- Increased aspartate aminotransferase (AST), treatment-related (all patients, N = 20): 40%
- Leukopenia, treatment-related (all patients, N = 20): 35%
- Nausea, treatment-related (all patients, N = 20): 30%
- Neutropenia, treatment-related (all patients, N = 20): 30%
- Patients with at least 1 treatment-related adverse event (all patients, N = 20): 95%
- Serious adverse events related to study treatment (all patients, N = 20): 15%
- Stomatitis, treatment-related (all patients, N = 20): 75%
- Thrombocytopenia, treatment-related (all patients, N = 20): 65%
- Treatment-related grade 3/4 increased ALT (all patients, N = 20): 25%
- Treatment-related grade 3/4 thrombocytopenia (all patients, N = 20): 10%
- Treatment-related grade 3/4 adverse events (all patients, N = 20 (9 patients)): 45%
- Serious adverse events (all patients, N = 20 (12 patients), most disease related): 60%
- Time to DLT onset, days (dose level 3, 33 mg/m^2, cycle 1): 22 (cycle 1) days
- Recommended phase 2 dose (RP2D) for oral ridaforolimus in children (once daily 5 days/week): 33 mg/m^2
- Deaths / grade 5 adverse events related to ridaforolimus (three deaths during the study): No deaths were considered related to ridaforolimus
